Test results published in patent publication US20090215755A1, “USE OF A PYRAZOLE DERIVATIVE FOR PREPARING MEDICINAL PRODUCTS THAT ARE USEFUL IN THE PREVENTION AND TREATMENT OF DYSLIPIDAEMIAS AND OF DISEASES RELATED TO DYSLIPIDAEMIAS AND/OR TO OBESITY” (SANOFI-AVENTIS, priority 2003, published 2009).
Marks after values point to notes of the source that are not given here.

Legend:
obese mice = assay: Action of rimonabant on blood lipid levels in obese mice (2 months of treatment); assay type: in vivo; conditions: rimonabant 10 mg/kg/day oral
Procedure: The effect of a long-term (2 months) treatment with rimonabant was studied in mice having an established obesity.
The study was carried out in mice receiving either a normal diet or a fatty diet. Obesity developed in the mice receiving a fatty diet and it became stabilized after 5 months. The mice were then divided up into 3 groups:
group 1: maintenance of the fatty diet and oral treatment for 2 months with rimonabant at 10 mg/kg/day, in water with 0.1% of Tween 80 (vehicle);
group 2: maintenance of the fatty diet and administration of the vehicle (water+0.1% of Tween 80);
group 3: return to a normal diet and administration of the vehicle (water+0.1% of Tween 80);
group 4 consists of mice receiving a normal diet and the vehicle from the start.

[1] = test system: obese individuals with dyslipidaemias; assay: Rio Lipids clinical study, 12 months, obese individuals with dyslipidaemias; assay type: in vivo, human
Procedure: The Rio Lipids clinical study, carried out for 12 months in 1036 obese individuals with dyslipidaemias, compares the effect of rimonabant at a dose of 20 mg, versus a placebo product, in weight reduction, improvement in the lipid parameters and prevalence of metabolic syndrome. The treated group and the placebo group are subjected to a low-calorie diet.

obese patients [2] = conditions: clinical studies, Le Fur 2003; Heshmati et al. 2001; cited from earlier work
obese patients [3] = assay: Clinical trial of rimonabant on the lipid parameters, 4 weeks of treatment, obese patients; assay type: in vivo, human; conditions: for Improvement in metabolic syndrome / Weight loss / Decrease in triglycerides ≧10% / Increase in HDLc ≧10% / Blood glucose level: obese patients; for Improvement in metabolic syndrome: ATP III definition; for Weight loss: low-calorie diet; for Decrease in triglycerides ≧10% / Increase in HDLc ≧10%: share of patients; for Blood glucose level: signed values (change)
Procedure: A clinical trial was carried out for 4 weeks on 287 obese patients whose body mass index (BMI) was between 30 and 40. After having received the placebo for 2 weeks, the patients were randomized so as to receive doses of 5, 10 or 20 mg/day of rimonabant or the placebo.
There was a check-up visit 4 weeks after the end of the treatment.
For the duration of the study, the patients were asked to follow a low-calorie diet (deficit of 500 kcal/day).

obese fa/fa Zucker rats = assay: Effect of rimonabant on steatosis and steatohepatitis in obese rats; assay type: in vivo; conditions: rimonabant 30 mg/kg/day oral, 2 months
Procedure: The effect of rimonabant on steatosis and steatohepatitis was studied in obese fa/fa Zucker rats.
For this study, 3 groups are formed: • thin rats/vehicle group: thin Zucker rats treated with the vehicle (water and 0.1% Tween 80); • obese rats/vehicle group: obese fa/fa Zucker rats treated with the vehicle (water and 0.1% Tween 80); • obese rats/rimonabant group: obese fa/fa Zucker rats treated orally for 2 months with rimonabant at 30 mg/kg/day, in the vehicle (water and 0.1% Tween 80).
After 2 months of treatment, the body weight and the weight of the liver are measured for each rat, and a histopathological analysis of the fat load in the livers is carried out.

[4] = group 1: obese mice kept on fatty diet
[5] = group 1: obese mice, fatty diet
[6] = rimonabant groups 5, 10, 20 mg/day taken together

## Cc1c(C(=O)NN2CCCCC2)nn(-c2ccc(Cl)cc2Cl)c1-c1ccc(Cl)cc1 [rimonabant, N-piperidino-5-(4-chlorophenyl)-1-(2,4-dichlorophenyl)-4-methylpyrazole-3-carboxamide]
Obese mice; [4]
  HDLc/total cholesterol: 62.2 ± 0.5 %
  LDLc/total cholesterol: 5.5 ± 0.3 %
Obese mice; [5]
  glucose blood level: decrease
  insulin blood level: decrease
  leptin blood level: decrease
[1]; rimonabant 20 mg group, before the year of treatment
  adiponectin, starting level: 5.8 ± 2.7 µg/mL
[1]; rimonabant 20 mg, 12 months
  adiponectin at the end of the year of treatment: 8.2 ± 4.2 µg/mL
[1]; rimonabant 20 mg, 12 months, low-calorie diet
  increase in the HDLc level exceeding that of the placebo group: 11.3±1.7%
[1]; rimonabant 20 mg, 12 months, low-calorie diet, p<0.001
  decrease in the triglyceride level exceeding that of the placebo group: 12.2±3.7
[1]; rimonabant 20 mg, 12 months, low-calorie diet, p≦0.001
  weight loss greater than that observed in the placebo group: 6.3 ± 0.5 kg
[1]; rimonabant 20 mg, 12 months, p<0.001 vs placebo
  patients who stopped showing the metabolic syndrome characteristics: 60.2%
Obese patients [2]
  body weight of obese patients: reduces the body weight of obese patients
  food intake: acts on food intake from a quantitative and qualitative point of view
Obese patients [3]; 5 mg/d rimonabant
  Improvement in metabolic syndrome: 42%
  Weight loss: 3.4 * kg
  Decrease in triglycerides ≧10%: 36%
  Increase in HDLc ≧10%: 43%
  Blood glucose level: −0.09 ** mmol/1
Obese patients [3]; 10 mg/d rimonabant
  Improvement in metabolic syndrome: 39%
  Weight loss: 3.7 * kg
  Decrease in triglycerides ≧10%: 34%
  Increase in HDLc ≧10%: 45%
  Blood glucose level: −0.02 *** mmol/1
Obese patients [3]; 20 mg/d rimonabant
  Improvement in metabolic syndrome: 21%
  Weight loss: 4.5 * kg
  Decrease in triglycerides ≧10%: 51%
  Increase in HDLc ≧10%: 44%
  Blood glucose level: +0.03 mmol/1
Obese patients [3]; [6]
  blood glucose level (overall statement): remains stable or decreases discretely
  metabolic syndrome as defined by ATP III (overall statement): tendency for the metabolic syndrome to improve
  triglycerides (overall statement): tendency for the triglycerides to decrease
Obese fa/fa Zucker rats
  Liver weight/body weight ratio: 3.86 ± 0.07 %
  decrease of the increase in the liver weight/body weight ratio seen in obese/vehicle rats: 80%
  fat overload in the liver (histopathological analysis): disappearance of this fat overload
